Test results published in ChEMBL document CHEMBL1144087, “Triterpenoid saponins from Ilex kudincha” (J Nat Prod, 1999).
Activity calls are given as the source filed them. The rule behind the calls is not given here.

Legend:
[1] = biological target: T1, Sterol O-acyltransferase 1 (Homo sapiens) (UniProt P35610); assay: Inhibition of ACAT at 1 mg/mL
T1 sequence (whole entry): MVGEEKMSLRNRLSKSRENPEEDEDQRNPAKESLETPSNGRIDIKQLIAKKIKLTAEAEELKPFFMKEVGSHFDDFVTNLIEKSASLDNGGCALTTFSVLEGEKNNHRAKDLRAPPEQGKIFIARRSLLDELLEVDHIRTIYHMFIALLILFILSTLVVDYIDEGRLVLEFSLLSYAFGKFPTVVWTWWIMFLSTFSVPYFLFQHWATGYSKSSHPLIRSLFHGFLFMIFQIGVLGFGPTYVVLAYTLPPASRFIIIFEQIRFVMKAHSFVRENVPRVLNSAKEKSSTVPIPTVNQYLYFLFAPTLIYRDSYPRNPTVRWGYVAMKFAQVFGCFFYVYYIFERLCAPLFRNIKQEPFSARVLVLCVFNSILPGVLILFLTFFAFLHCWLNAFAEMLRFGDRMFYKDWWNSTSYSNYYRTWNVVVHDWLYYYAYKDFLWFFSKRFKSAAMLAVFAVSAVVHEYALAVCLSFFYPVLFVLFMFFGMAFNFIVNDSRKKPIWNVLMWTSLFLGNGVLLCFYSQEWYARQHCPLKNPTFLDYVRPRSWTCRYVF

[2] = biological target: T1, Sterol O-acyltransferase 1 (Homo sapiens); assay: Inhibition of ACAT at 0.2 mg/mL
[3] = biological target: T1, Sterol O-acyltransferase 1 (Homo sapiens); assay: Inhibition of ACAT at 0.05 mg/mL

Row | inhibition [1] | Activity [2] | inhibition [3] | Activity [3] | Activity [1] | inhibition [2] | Structure (SMILES)
1 | – | inactive | – | inactive | inactive | – | C[C@@H]1O[C@@H](O[C@H]2[C@H](O[C@H]3CC[C@]4(C)[C@H]5[C@@H](O)CC6=C7[C@]8(CC[C@](C)(OC8=O)[C@@]7(C)O)CC[C@@]6(C)[C@]5(C)CC[C@H]4C3(C)C)OC[C@H](O)[C@@H]2O[C@@H]2O[C@H](CO)[C@@H](O)[C@H](O)[C@H]2O[C@@H]2O[C@H](CO)[C@@H](O)[C@H](O)[C@H]2O)[C@H](O)[C@H](O)[C@H]1O
2 | – | inactive | – | – | inactive | – | C[C@@H]1CC[C@]2(C(=O)O[C@@H]3O[C@H](CO)[C@@H](O)[C@H](O)[C@H]3O)CC[C@]3(C)C(=CC[C@@H]4[C@@]5(C)CC[C@H](O[C@@H]6OC[C@H](O)[C@H](O[C@@H]7O[C@H](CO)[C@@H](O)[C@H](O)[C@H]7O)[C@H]6O)C(C)(C)[C@@H]5CC[C@]43C)[C@@H]2[C@]1(C)O
3 | 43% | inactive | – | inactive | – | – | CC1(C)[C@@H](O[C@@H]2O[C@H](CO)[C@@H](O)[C@H](O)[C@H]2O[C@@H]2O[C@H](CO)[C@@H](O)[C@H](O)[C@H]2O)CC[C@]2(C)[C@H]3C[C@@H](O)C4=C5[C@]6(CC[C@](C)(OC6=O)[C@@]5(C)O)CC[C@@]4(C)[C@]3(C)CC[C@@H]12
4 | – | inactive | – | inactive | inactive | – | C[C@@H]1O[C@@H](O[C@H]2[C@H](O[C@H]3CC[C@]4(C)[C@H]5CC=C6[C@H]7[C@]8(CC[C@](C)(OC8=O)[C@@]7(C)O)CC[C@@]6(C)[C@]5(C)CC[C@H]4C3(C)C)OC[C@H](O)[C@@H]2O[C@@H]2O[C@H](CO)[C@@H](O)[C@H](O)[C@H]2O[C@@H]2O[C@H](CO)[C@@H](O)[C@H](O)[C@H]2O)[C@H](O)[C@H](O)[C@H]1O
5 | 63.9% | – | – | – | – | 29% | C[C@H]1[C@H](C)CC[C@]2(C(=O)O[C@@H]3O[C@H](CO)[C@@H](O)[C@H](O)[C@H]3O)CC[C@]3(C)C(=CC[C@@H]4[C@@]5(C)CC[C@H](O[C@H]6O[C@@H](C(=O)O)[C@H](O)[C@@H](O)[C@@H]6O)[C@@](C)(CO)[C@@H]5CC[C@]43C)[C@H]12
6 | 64.3% | – | 15.7% | – | – | 36.5% | CC1(C)CC[C@]2(C(=O)O[C@@H]3O[C@H](CO)[C@@H](O)[C@H](O)[C@H]3O)CC[C@]3(C)C(=CC[C@@H]4[C@@]5(C)CC[C@H](O[C@H]6O[C@@H](C(=O)O)[C@H](O)[C@@H](O)[C@@H]6O)[C@@](C)(CO)[C@@H]5CC[C@]43C)[C@@H]2C1

More lines, now with the values behind:

Row | Structure (SMILES) | inhibition [1] | Activity [2] | inhibition [3] | Activity [3] | Activity [1] | inhibition [2]
7 | CC1(C)[C@@H](O[C@@H]2OC[C@H](O)[C@H](O)[C@H]2O[C@@H]2O[C@H](CO)[C@@H](O)[C@H](O)[C@H]2O)CC[C@]2(C)[C@H]3C[C@@H](O)C4=C5[C@]6(CC[C@](C)(OC6=O)[C@@]5(C)O)CC[C@@]4(C)[C@]3(C)CC[C@@H]12 | 24.1% | inactive | – | – | – | –
8 | C[C@@H]1O[C@@H](O[C@H]2[C@H](O[C@H]3CC[C@]4(C)[C@H]5CC=C6[C@@H]7CC(C)(C)CC[C@]7(C(=O)O[C@@H]7O[C@H](CO)[C@@H](O)[C@H](O)[C@H]7O)CC[C@@]6(C)[C@]5(C)CC[C@H]4C3(C)C)OC[C@H](O)[C@@H]2O[C@@H]2O[C@H](CO)[C@@H](O)[C@H](O)[C@H]2O)[C@H](O)[C@H](O)[C@H]1O | 25.4% | inactive | 31.7% | – | – | –
9 | C[C@@H]1O[C@@H](O[C@H]2[C@H](O[C@H]3CC[C@]4(C)[C@H]5CC=C6[C@H]7[C@](C(=O)O[C@@H]8O[C@H](CO)[C@@H](O)[C@H](O)[C@H]8O)(CC[C@@H](C)[C@@]7(C)O)CC[C@@]6(C)[C@]5(C)CC[C@H]4C3(C)C)OC[C@H](O)[C@@H]2O)[C@H](O)[C@H](O)[C@H]1O | 72.8% | inactive | – | inactive | – | –
10 | C[C@@H]1O[C@@H](O[C@H]2[C@H](OC(=O)[C@]34CCC(C)(C)[C@@H](O)[C@H]3C3=CC[C@@H]5[C@@]6(C)CC[C@H](O[C@@H]7OC[C@H](O)[C@H](O[C@@H]8O[C@H](CO)[C@@H](O)[C@H](O)[C@H]8O)[C@H]7O[C@@H]7O[C@@H](C)[C@H](O)[C@@H](O)[C@H]7O)C(C)(C)[C@@H]6CC[C@@]5(C)[C@]3(C)CC4)O[C@H](CO)[C@@H](O)[C@@H]2O)[C@H](O)[C@H](O)[C@H]1O | – | inactive | – | inactive | inactive | –
11 | C[C@@H]1CC[C@]2(C(=O)O[C@@H]3O[C@H](CO)[C@@H](O)[C@H](O)[C@H]3O)CC[C@]3(C)C(=CC[C@@H]4[C@@]5(C)CC[C@H](O[C@@H]6OC[C@H](O)[C@H](O)[C@H]6O)[C@@](C)(CO)[C@@H]5CC[C@]43C)[C@@H]2[C@]1(C)O | 18.9% | inactive | – | inactive | – | –
12 | C[C@@H]1O[C@@H](O[C@H]2[C@H](OC(=O)[C@]34CC[C@@H](C)[C@@](C)(O)[C@H]3C3=CC[C@@H]5[C@@]6(C)CC[C@H](O[C@@H]7OC[C@H](O)[C@H](O[C@@H]8O[C@H](CO)[C@@H](O)[C@H](O)[C@H]8O)[C@H]7O[C@@H]7O[C@@H](C)[C@H](O)[C@@H](O)[C@H]7O)C(C)(C)[C@@H]6CC[C@@]5(C)[C@]3(C)CC4)O[C@H](CO)[C@@H](O)[C@@H]2O)[C@H](O)[C@H](O)[C@H]1O | – | – | – | inactive | inactive | 10.6%
13 | C[C@@H]1O[C@@H](O[C@H]2[C@H](O[C@H]3CC[C@]4(C)[C@H]5CC=C6[C@@H]7[C@H](O)C(C)(C)CC[C@]7(C(=O)O[C@@H]7O[C@H](CO)[C@@H](O)[C@H](O)[C@H]7O)CC[C@@]6(C)[C@]5(C)CC[C@H]4C3(C)C)OC[C@H](O)[C@@H]2O[C@@H]2O[C@H](CO)[C@@H](O)[C@H](O)[C@H]2O)[C@H](O)[C@H](O)[C@H]1O | 20% | inactive | – | inactive | – | –
14 | C[C@H]1[C@H](C)CC[C@]2(C(=O)O[C@@H]3O[C@H](CO)[C@@H](O)[C@H](O)[C@H]3O)CC[C@]3(C)C(=CC[C@@H]4[C@@]5(C)C[C@@H](O)[C@H](O[C@@H]6OC[C@H](O)[C@H](O)[C@H]6O)[C@@](C)(CO)[C@@H]5CC[C@]43C)[C@H]12 | 35.5% | inactive | – | inactive | – | –
15 | C=C1CC[C@]2(C(=O)O[C@@H]3O[C@H](CO)[C@@H](O)[C@H](O)[C@H]3O[C@@H]3O[C@@H](C)[C@H](O)[C@@H](O)[C@H]3O)CC[C@]3(C)C(=CC[C@@H]4[C@@]5(C)CC[C@H](O[C@@H]6OC[C@H](O)[C@H](O[C@@H]7O[C@H](CO)[C@@H](O)[C@H](O)[C@H]7O[C@@H]7O[C@H](CO)[C@@H](O)[C@H](O)[C@H]7O)[C@H]6O[C@@H]6O[C@@H](C)[C@H](O)[C@@H](O)[C@H]6O)C(C)(C)[C@@H]5CC[C@]43C)[C@@H]2[C@]1(C)O | 60% | inactive | – | – | – | –
16 | C[C@@H]1CC[C@]2(C(=O)O[C@@H]3O[C@H](CO)[C@@H](O)[C@H](O)[C@H]3O)CC[C@]3(C)C(=CC[C@@H]4[C@@]5(C)CC[C@H](O[C@H]6O[C@@H](C(=O)O)[C@H](O)[C@@H](O)[C@@H]6O)C(C)(C)[C@@H]5CC[C@]43C)[C@@H]2[C@]1(C)O | 12.5% | inactive | – | – | – | –
17 | C[C@@H]1O[C@@H](O[C@H]2[C@H](O[C@H]3CC[C@]4(C)[C@H]5CC=C6[C@H]7[C@](C(=O)O[C@@H]8O[C@H](CO)[C@@H](O)[C@H](O)[C@H]8O)(CC[C@@H](C)[C@@]7(C)O)CC[C@@]6(C)[C@]5(C)CC[C@H]4C3(C)C)OC[C@H](O)[C@@H]2O[C@@H]2O[C@H](CO)[C@@H](O)[C@H](O)[C@H]2O)[C@H](O)[C@H](O)[C@H]1O | 31.8% | – | 10.9% | – | – | 10.3%
